PMC9385959, “Mammalian derived lipocalin and secretoglobin respiratory allergens strongly bind ligands with potentially immune modulating properties” (Frontiers in Allergy, 2022)
Where “and” joins values, the source holds several entries; their conditions need not be identical. Equal entries are not always repeated. Where two headings read alike, the source gives them in different places.

What was measured:
[1] = target: T1, Fel d 4 (Felis catus, UniProt Q5VFH6); assay: Competitive fluorescence-quenching assay, Fel d 4; type: binding, cat; settings: for Ki: 5 μM Fel d 4, fluorochrome 1-NPN, to be interpreted with caution, imprecise Ki values, read-out: Ligand inhibition constant Ki; for inhibition at 100 µM: read-out: Mean fluorescence inhibition
T1 construct: polyhistidine tag (C); made in house; host or cells: E. coli Rosetta-gami 2
T1 sequence (Q5VFH6 16-186): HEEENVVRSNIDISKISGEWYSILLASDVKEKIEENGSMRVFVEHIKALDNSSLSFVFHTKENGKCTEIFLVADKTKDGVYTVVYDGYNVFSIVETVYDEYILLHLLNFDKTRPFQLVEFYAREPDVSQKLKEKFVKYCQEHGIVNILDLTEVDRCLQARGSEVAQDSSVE
Protocol: (§1) Fluorescence quenching assays were performed as previously described ([45]), with modifications. Fluorochromes and ligands were purchased from Sigma Aldrich (Steinheim, Germany), Carl Roth (Karlsruhe, Germany) and TCI Europe N.V. (Zwijndrecht, Belgium).
(§2) Stock solutions were prepared at a concentration of 10 mM in 100% ethanol for the fluorochromes 1-aminoanthracene (1-AMA), 8-anilino-1-naphthalensulfonic acid (1,8-ANS) and for all ligands, and in 100% methanol for n-phenyl-1-naphthylamine (1-NPN), respectively. Iron catecholate ligands (siderophores) were prepared as previously described ([46]). Fluorochrome-protein complexes were analyzed at an equimolar concentration of 5 μM in PBS with 5% ethanol in a volume of 100 μL per well in black 96-well non-binding microplates (Greiner Bio-One GmbH, Frickenhausen, Germany). Solutions containing only protein or the respective fluorescent probe in PBS with 5% ethanol served as controls. Fluorochrome-protein complexes were incubated with orbital shaking for 10 min at 500 rpm at room temperature (RT) before measurement using the fluorescence reader TECAN Infinite 200 Pro (Tecan Trading AG, Switzerland). Excitation wavelengths were fixed at 380 nm for 1-AMA and 1,8-ANS, and 337 nm for 1-NPN. Fluorescence emission spectra were recorded in 5 nm steps between 420 and 560 nm for 1-AMA and 1,8-ANS and between 380 and 500 nm for 1-NPN. The establishment of fluorescent quenching assay parameters for each allergen is explained in the results Section Fluorescence-quenching assay set up. Binding affinities were analyzed by non-linear regression in GraphPad Prism Version 9.3.1 (GraphPad Software, LLC). For the ligand competition assays, ligands were added to fluorochrome-allergen complexes with a final buffer composition of 5% ethanol in PBS in a volume of 100 μL and incubated for 30 min at 500 rpm at RT and further equilibrated for another 30 min without shaking before fluorescence measurement.
(§3) The binding affinities of non-fluorescent ligands is inferred to by their ability to compete and displace the fluorochromes bound to the allergen at a certain concentration. This leads to a measurable decrease in fluorescence intensity that will be expressed as fluorescence inhibition (Figure 6). For a given allergen, the ligand with the strongest inhibition has the highest binding affinity. […] Competitive ligand binding was analyzed by non-linear regression and inhibitory dissociation constants (Ki) were calculated.

[2] = target: T2, Can f 6 (Canis lupus familiaris, UniProt H2B3G5); assay: Competitive fluorescence-quenching assay, Can f 6; type: binding, dog; settings: for inhibition at 100 µM: read-out: Mean fluorescence inhibition; for Ki: 5 μM Can f 6, fluorochrome 1-NPN, to be interpreted with caution, imprecise Ki values, read-out: Ligand inhibition constant Ki
T2 construct: polyhistidine tag (C); made in house; host or cells: E. coli Rosetta-gami 2
T2 sequence (H2B3G5 16-190): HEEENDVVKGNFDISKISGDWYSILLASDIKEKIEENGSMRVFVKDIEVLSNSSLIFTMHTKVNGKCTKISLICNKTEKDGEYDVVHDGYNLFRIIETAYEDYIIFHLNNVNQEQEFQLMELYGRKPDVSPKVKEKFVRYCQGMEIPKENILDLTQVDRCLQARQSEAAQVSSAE
Protocol: as §1, §2, §3

[3] = target: Ory c 3 (Oryctolagus cuniculus, UniProt Q9GK63+Q9GK67); assay: Competitive fluorescence-quenching assay, Ory c 3; type: binding, rabbit; settings: 5 μM Ory c 3-1-AMA complex, 50 μM ligand, n = 2; for inhibition at 50 µM: read-out: Mean fluorescence inhibition
Protocol: as §1, §2, §3

[4] = target: T3, Fel d 1 (Felis catus, UniProt P30438+P30440); assay: Competitive fluorescence-quenching assay, Fel d 1; type: binding, cat; settings: 100 μM ligand; for inhibition at 100 µM: read-out: Mean fluorescence inhibition
T3 construct: polyhistidine tag (C); made in house; host or cells: E. coli Rosetta-gami 2
T3 sequence (P30438+P30440 with tags, fused parts or gaps): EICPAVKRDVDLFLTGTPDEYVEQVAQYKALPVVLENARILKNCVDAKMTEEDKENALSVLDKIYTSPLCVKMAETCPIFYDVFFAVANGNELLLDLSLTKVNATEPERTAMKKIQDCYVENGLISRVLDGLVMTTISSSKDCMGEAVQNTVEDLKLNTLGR
Protocol: as §1, §2, §3

[5] = system: Ory c 2; assay: Competitive fluorescence-quenching assay, Ory c 2; type: binding, rabbit; settings: for Mean fluorescence inhibition: 5 μM Ory c 2-1-AMA complex, 50 μM ligand, n = 2
Protocol: as §1, §2, §3

[6] = target: Cav p 1.0101 (Cavia porcellus, UniProt A0A484HM70, S19A); assay: Competitive fluorescence-quenching assay, Cav p 1.0101; type: binding, guinea pig
Protocol: as §1, §2, §3

[7] = target: Cav p 1.0201 (Cavia porcellus, UniProt A0A484HRI4); assay: Competitive fluorescence-quenching assay, Cav p 1.0201; type: binding, guinea pig
Protocol: as §1, §2, §3

[8] = target: T4, human LCN1 (Homo sapiens, UniProt P31025); assay: Competitive fluorescence-quenching assay, LCN1; type: binding; settings: for Ki: 5 μM LCN1, fluorochrome 1,8-ANS, read-out: Ligand inhibition constant Ki
T4 construct: made in house; host or cells: E. coli Rosetta-gami 2(DE3)
Protocol: as §1, §2, §3

[9] = target: T5, Can f 1 (Canis lupus familiaris, UniProt O18873); assay: Competitive fluorescence-quenching assay, Can f 1; type: binding, dog; settings: for inhibition at 50 µM: read-out: Mean fluorescence inhibition
T5 construct: made in house; host or cells: E. coli Rosetta-gami 2(DE3)
Protocol: as §1, §2, §3

[10] = target: T2, Can f 6; assay: Fluorochrome binding to Can f 6 (emission spectra and titration); design: species or system dog; settings: 5 μM Can f 6 with 5 μM fluorochrome
Protocol: as §2
(§4) We established four specific parameters for each allergen to set up a fluorescence quenching assay for screening a large array of potential ligands: (i) a compatible fluorochrome, (ii) the optimal emission wavelength to analyze the fluorescence intensities of the fluorochrome-allergen complex, (iii) the binding affinities of the fluorochrome-allergen complex (Kd values) and (iv) optimal fluorochrome concentrations (EC50 values).
(§5) For each allergen, we identified a suitable fluorescence probe by adding equimolar concentrations of either 1-AMA or 1,8-ANS to the recombinant proteins. […] 1-AMA was chosen for the guinea pig lipocalin Cav p 1 isoallergens, rabbit lipocalin Ory c 2, and rabbit secretoglobin Ory c 3. Fluorescence intensities increased 20–60-fold upon binding. While the emission maxima shifted from 565 to 485 nm for lipocalin fluorochrome-allergen pairs, the blue shift was less pronounced for the Ory c 3 secretoglobin-1-AMA complex to 505 nm (Figure 4B). […] Respective Kd were calculated after background subtraction (Figure 4B). As ethanol gave a high background with 1-NPN, these experiments were carried out with methanol to […] the signal-to-noise-ratio.
(§6) We evaluated the binding affinities of the fluorochromes to the allergens by dose-dependent titration curves. Increasing fluorochrome concentrations were added to a fixed protein concentration of 5 μM until saturation (Figure 5). Fluorescence intensities were recorded at specific emission maxima for each fluorochrome-allergen complex, determined using the emission spectra shown in Figure 4. We analyzed the specific binding of fluorochrome-allergen complexes by non-linear regression and calculated equilibrium dissociation constants (Kd) and EC50 values (Table 2). EC50 values are equal to fluorochome concentrations in which half of the allergen binding sites are saturated and these concentrations were used in subsequent ligand competition assays. We chose a one-site specific binding model for all allergens, except for human LCN1, where multiple binding site analysis emerged as the model of best fit and two Kd values were calculated. Evidence for internal and external binding sites for 1,8-ANS and LCN1 were already reported ([58]).

[11] = target: T1, Fel d 4; assay: Fluorochrome binding to Fel d 4 (emission spectra and titration); design: species or system cat; settings: 5 μM Fel d 4 with 5 μM fluorochrome
Protocol: as §2, §4, §5, §6

[12] = 5 μM Fel d 4-1-NPN complex, 100 μM ligand
[13] = 5 μM Can f 6-1-NPN complex, 100 μM ligand, high standard error
[14] = 5 μM Cav p 1.0101-1-AMA complex, 50 μM ligand, n = 2
[15] = 5 μM Cav p 1.0201-1-AMA complex, 50 μM ligand, n = 2
[16] = 5 μM LCN1-1,8-ANS complex, 50 μM ligand, n = 2
[17] = 5 μM Can f 1-1,8-ANS complex, 50 μM ligand, n = 2

CC(C)c1ccccc1O [2-Isopropylphenol, 2-isopropylphenol]
Ki [1]: 20100 nM
inhibition at 100 µM [1, 12]: 99.5%
inhibition at 100 µM [2, 13]: 105%

CC(C)CCCC(C)CCO (stereo not drawn) [3,7-dimethyl-1-octanol]
inhibition at 50 µM [3]: 91.1%
inhibition at 100 µM ([4]; 5 μM Fel d 1 + 1,8-ANS complex): 58.3%
inhibition at 100 µM ([4]; 5 μM Fel d 1 + 1-NPN complex): 85.4%
Mean fluorescence inhibition [5]: 72.5%
inhibition at 100 µM [1, 12]: 89.5%
inhibition at 100 µM [2, 13]: 100%
inhibition at 50 µM [6, 14]: 96.4%
inhibition at 50 µM [7, 15]: 80.3%

CC(C)c1cccc(O)c1 [3-Isopropylphenol, 3-ilsopropylphenole]
Mean fluorescence inhibition [5]: 89.5%
inhibition at 100 µM [1, 12]: 89.5%
inhibition at 100 µM [2, 13]: 107%
inhibition at 50 µM [6, 14]: 55.3%
inhibition at 50 µM [7, 15]: 75.7%

CCCCC/C=C\C/C=C\C/C=C\C/C=C\CCCC(=O)O [Arachidonic acid, arachidonic acid]
Ki [8]: 1900 nM
inhibition at 50 µM [8, 16]: 96.7%
Ki [9]: 1300 nM
inhibition at 50 µM [9]: 86.4%

CN(C)c1cccc2c(S(=O)(=O)NCCCCCCCCCCC(=O)O)cccc12 [DAUDA, 11-(Dansylamino)undecanoic acid]
Increase of fluorescence intensity upon binding [10]: neither reacted
Increase of fluorescence intensity upon binding [11]: neither reacted

CC(C)=CCC/C(C)=C/CC/C(C)=C/CO [Farnesol, farnesol]
inhibition at 50 µM [3]: 91.3%
inhibition at 100 µM ([4]; 5 μM Fel d 1 + 1,8-ANS complex): 11.2%
Ki ([5]; 5 μM Ory c 2, fluorochrome 1-AMA, read-out: Ligand inhibition constant Ki): 1100 nM
Mean fluorescence inhibition [5]: 96.0%
inhibition at 50 µM [8, 16]: 90.9%
inhibition at 50 µM [6, 14]: 98.9%
Ki ([6]; Ki (printed in Figure 6D), Cav p 1.0101, titration 0–60 μM ligand, unit inferred): 580 nM
Ki ([6]; Ligand inhibition constant Ki, 5 μM Cav p 1.0101, fluorochrome 1-AMA): 600 nM
Ki ([7]; 5 μM Cav p 1.0201, fluorochrome 1-AMA, read-out: Ligand inhibition constant Ki): 600 nM
inhibition at 50 µM [7, 15]: 95.5%
inhibition at 50 µM [9, 17]: 43.1%

COc1nccnc1CC(C)C [IBMP, 2-isobutyl-3-methoxypyrazine]
Ki [1]: 39200 nM
inhibition at 100 µM [1, 12]: 96.8%
Ki [2]: 49600 nM
inhibition at 100 µM [2, 13]: 118%

CCCCCCCCN [Octanamine, octanamine]
Mean fluorescence inhibition [3]: 54.7%
Mean fluorescence inhibition ([4]; 5 μM Fel d 1 + 1,8-ANS complex): 37.7%
Mean fluorescence inhibition ([4]; 5 μM Fel d 1 + 1-NPN complex): 81.1%
Mean fluorescence inhibition [1, 12]: 94.9%
Ki [2]: 273000 nM
Mean fluorescence inhibition [2, 13]: 148.7%

CCCCCCCCCCCCCCC(=O)O [Pentadecanoic acid, pentadecanoic acid]
inhibition at 50 µM [8, 16]: 88.7%
inhibition at 50 µM [9]: 41.4%

CC1=C(/C=C/C(C)=C/C=C/C(C)=C/CO)C(C)(C)CCC1 [Retinol, retinol]
inhibition at 50 µM [8, 16]: 84.3%
inhibition at 50 µM [9, 17]: 49%

C[C@]12CC[C@H]3[C@@H](CCC4=CC(=O)CC[C@@]43C)[C@@H]1CC[C@@H]2O [Testosterone, testosterone]
inhibition at 100 µM [1]: 92.2%
inhibition at 100 µM [2]: 43.7%
Mean fluorescence inhibition [6, 14]: not observed
Mean fluorescence inhibition [7, 15]: not observed

CCCCCCCCCCCCCC(=O)O [Tetradecanoic acid, tetradecanoic acid]
Ki [8]: 1800 nM
inhibition at 50 µM [8, 16]: 91.9%
Ki ([9]; 5 μM Can f 1, fluorochrome 1,8-ANS, read-out: Ligand inhibition constant Ki): 7400 nM
inhibition at 50 µM [9]: 60.8%

Lipopolysaccharide
Mean fluorescence inhibition [8, 16]: 81% and 81.2%
Mean fluorescence inhibition [9, 17]: 57.4%
